From patent EP3632916B1, “MORPHINAN COMPOUNDS” (Concert Pharmaceuticals Inc., priority 2007, dated 2008) come the findings set out here.

The target in the data set is Human CYP2D6 + P450 Reductase SUPERSOMES (Homo sapiens, UniProt P10635). Particulars: 0.1 µM, 2D6 Supersomes. On the procedure:
Plates were then spun in the centrifuge for 10 minutes at 3000 rpm.

SMILES strings stand for the structures.

Chain of Human CYP2D6 + P450 Reductase SUPERSOMES (P10635 whole entry): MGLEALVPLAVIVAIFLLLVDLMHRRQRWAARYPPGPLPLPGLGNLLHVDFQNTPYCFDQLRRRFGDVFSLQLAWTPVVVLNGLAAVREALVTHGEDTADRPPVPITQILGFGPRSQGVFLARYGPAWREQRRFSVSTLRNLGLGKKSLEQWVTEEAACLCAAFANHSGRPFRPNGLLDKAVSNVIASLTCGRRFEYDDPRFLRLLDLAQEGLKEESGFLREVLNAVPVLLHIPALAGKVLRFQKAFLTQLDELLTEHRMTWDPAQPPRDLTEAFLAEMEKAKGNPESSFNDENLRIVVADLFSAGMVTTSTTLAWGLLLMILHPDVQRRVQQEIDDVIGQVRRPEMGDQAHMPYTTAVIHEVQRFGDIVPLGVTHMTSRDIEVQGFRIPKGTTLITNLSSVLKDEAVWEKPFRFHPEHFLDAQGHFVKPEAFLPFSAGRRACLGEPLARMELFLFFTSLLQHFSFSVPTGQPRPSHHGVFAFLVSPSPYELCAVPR

In the case of `COc1ccc2c(c1)[C@]13CCCC[C@@H]1[C@H](C2)N(C)CC3` [dextromethorphan, (+)-3-methoxy-17-methyl-(9α,13α,14α)-morphinan], the “intact compound at the 20 minute time point” value is “no intact dextromethorphan could be detected”.
